# In publication PMC12774351, “A lignan compound regulates LPS modifications via PmrA/B signaling cascades to potentiate colistin efficacy in vivo” (PLOS Pathogens, 2025):
# pKd: −log10 of the molar value.
# Biological target: T1, PmrA (Salmonella enterica, UniProt A0A0F6BAF1)
# T1 construct: gene basR
# Assay: isothermal titration calorimetry
# Type: binding
# T1 sequence (A0A0F6BAF1 entry or part of it): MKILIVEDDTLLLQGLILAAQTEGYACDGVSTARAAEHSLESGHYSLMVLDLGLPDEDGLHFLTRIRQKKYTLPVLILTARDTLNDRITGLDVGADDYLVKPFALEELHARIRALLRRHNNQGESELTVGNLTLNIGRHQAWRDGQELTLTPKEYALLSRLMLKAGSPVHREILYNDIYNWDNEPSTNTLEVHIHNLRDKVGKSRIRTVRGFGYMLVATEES
smiles,measurement,value
C=CCc1ccc(O)c(-c2cc(CC=C)ccc2O)c1 [magnolol],pKd,5.70
